Data from US11739098B2 (BRISTOL-MYERS SQUIBB COMPANY, priority 2017, dated 2023).

Assays:
Type in all cases: cell-based
human TLR8 = target: T1, human TLR8 (Homo sapiens, UniProt Q9NR97); experiment: TLR8 inhibition reporter assay (HEK-Blue cells, SEAP reporter, R848 stimulation); conditions: HEK-Blue cells overexpressing human TLR8, SEAP reporter, R848 15.9 μM
T1 construct: host or cells: HEK-Blue cells (HEK293-derived reporter line)
T1 sequence (Q9NR97 27-1041): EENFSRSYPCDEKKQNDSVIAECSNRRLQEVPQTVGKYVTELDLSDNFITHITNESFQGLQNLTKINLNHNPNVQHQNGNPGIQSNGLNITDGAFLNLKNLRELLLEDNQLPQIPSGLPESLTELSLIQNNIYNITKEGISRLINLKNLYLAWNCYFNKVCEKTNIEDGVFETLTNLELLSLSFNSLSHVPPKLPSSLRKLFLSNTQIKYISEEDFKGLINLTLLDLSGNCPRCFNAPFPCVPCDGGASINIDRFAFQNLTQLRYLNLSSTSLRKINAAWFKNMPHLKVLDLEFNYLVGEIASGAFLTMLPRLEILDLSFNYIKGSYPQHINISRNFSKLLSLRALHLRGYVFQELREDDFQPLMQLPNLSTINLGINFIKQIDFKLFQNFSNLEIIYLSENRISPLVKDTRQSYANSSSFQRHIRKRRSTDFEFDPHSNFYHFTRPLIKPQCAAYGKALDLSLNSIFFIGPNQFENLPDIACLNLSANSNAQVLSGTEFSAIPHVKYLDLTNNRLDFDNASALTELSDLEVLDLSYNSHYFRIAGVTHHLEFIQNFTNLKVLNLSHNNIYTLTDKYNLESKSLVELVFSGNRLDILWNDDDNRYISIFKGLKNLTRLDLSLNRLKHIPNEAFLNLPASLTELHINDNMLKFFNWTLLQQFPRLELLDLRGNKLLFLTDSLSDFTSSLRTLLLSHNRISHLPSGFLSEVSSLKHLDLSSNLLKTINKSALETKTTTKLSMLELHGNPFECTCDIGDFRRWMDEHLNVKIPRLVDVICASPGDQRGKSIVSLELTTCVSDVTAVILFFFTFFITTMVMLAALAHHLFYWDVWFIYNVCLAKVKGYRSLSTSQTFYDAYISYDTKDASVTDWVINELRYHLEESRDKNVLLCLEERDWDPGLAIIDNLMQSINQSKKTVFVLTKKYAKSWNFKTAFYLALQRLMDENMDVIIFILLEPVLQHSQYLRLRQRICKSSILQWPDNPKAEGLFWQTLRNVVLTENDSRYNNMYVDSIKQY
How it was run: (§1)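 HEK-Blue cells overexpressing human TLR7, TLR8 or TLR9 (NF-κB/AP-1-driven SEAP) pre-treated 30 min at room temperature with compound (0.05 nM–50 μM), then stimulated with gardiquimod 7.5 μM (TLR7), R848 15.9 μM (TLR8) or ODN2006 5 nM (TLR9). SEAP read colorimetrically after 22 h at 37 °C; % inhibition calculated.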

human TLR9 = target: T2, human TLR9 (Homo sapiens, UniProt Q9NR96); experiment: TLR9 inhibition reporter assay (HEK-Blue cells, SEAP reporter, ODN2006 stimulation); conditions: HEK-Blue cells overexpressing human TLR9, SEAP reporter, ODN2006 5 nM
T2 construct: host or cells: HEK-Blue cells (HEK293-derived reporter line)
T2 sequence (Q9NR96 26-1032): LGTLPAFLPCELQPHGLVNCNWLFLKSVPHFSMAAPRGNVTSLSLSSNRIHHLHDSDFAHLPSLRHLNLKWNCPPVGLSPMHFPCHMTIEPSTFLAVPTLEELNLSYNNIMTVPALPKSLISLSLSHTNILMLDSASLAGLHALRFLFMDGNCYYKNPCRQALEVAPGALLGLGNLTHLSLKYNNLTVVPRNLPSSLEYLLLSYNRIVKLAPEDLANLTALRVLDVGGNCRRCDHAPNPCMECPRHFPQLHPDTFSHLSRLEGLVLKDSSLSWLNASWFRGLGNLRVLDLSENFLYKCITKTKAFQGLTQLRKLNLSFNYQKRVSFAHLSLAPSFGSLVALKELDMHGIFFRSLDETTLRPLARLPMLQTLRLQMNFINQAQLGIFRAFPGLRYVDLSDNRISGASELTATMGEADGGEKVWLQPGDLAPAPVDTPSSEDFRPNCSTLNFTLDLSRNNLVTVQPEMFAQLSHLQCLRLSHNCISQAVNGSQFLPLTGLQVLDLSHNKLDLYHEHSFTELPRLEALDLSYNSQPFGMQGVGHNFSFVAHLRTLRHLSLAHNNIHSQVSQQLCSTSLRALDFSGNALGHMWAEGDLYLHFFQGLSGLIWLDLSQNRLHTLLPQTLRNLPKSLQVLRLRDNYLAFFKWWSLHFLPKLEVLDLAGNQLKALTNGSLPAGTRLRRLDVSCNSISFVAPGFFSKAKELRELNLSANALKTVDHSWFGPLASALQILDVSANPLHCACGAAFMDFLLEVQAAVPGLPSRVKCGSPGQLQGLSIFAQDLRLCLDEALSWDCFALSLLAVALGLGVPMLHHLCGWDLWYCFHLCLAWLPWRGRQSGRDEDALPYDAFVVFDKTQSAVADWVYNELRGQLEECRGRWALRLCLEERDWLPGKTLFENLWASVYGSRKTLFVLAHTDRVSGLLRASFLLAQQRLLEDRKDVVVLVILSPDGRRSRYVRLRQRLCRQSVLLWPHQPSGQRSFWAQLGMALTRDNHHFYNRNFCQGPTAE
How it was run: as §1

human TLR7 = target: T3, human TLR7 (Homo sapiens, UniProt Q9NYK1); experiment: TLR7 inhibition reporter assay (HEK-Blue cells, SEAP reporter, gardiquimod stimulation); conditions: HEK-Blue cells overexpressing human TLR7, SEAP reporter, gardiquimod 7.5 μM
T3 construct: host or cells: HEK-Blue cells (HEK293-derived reporter line)
T3 sequence (Q9NYK1 27-1049): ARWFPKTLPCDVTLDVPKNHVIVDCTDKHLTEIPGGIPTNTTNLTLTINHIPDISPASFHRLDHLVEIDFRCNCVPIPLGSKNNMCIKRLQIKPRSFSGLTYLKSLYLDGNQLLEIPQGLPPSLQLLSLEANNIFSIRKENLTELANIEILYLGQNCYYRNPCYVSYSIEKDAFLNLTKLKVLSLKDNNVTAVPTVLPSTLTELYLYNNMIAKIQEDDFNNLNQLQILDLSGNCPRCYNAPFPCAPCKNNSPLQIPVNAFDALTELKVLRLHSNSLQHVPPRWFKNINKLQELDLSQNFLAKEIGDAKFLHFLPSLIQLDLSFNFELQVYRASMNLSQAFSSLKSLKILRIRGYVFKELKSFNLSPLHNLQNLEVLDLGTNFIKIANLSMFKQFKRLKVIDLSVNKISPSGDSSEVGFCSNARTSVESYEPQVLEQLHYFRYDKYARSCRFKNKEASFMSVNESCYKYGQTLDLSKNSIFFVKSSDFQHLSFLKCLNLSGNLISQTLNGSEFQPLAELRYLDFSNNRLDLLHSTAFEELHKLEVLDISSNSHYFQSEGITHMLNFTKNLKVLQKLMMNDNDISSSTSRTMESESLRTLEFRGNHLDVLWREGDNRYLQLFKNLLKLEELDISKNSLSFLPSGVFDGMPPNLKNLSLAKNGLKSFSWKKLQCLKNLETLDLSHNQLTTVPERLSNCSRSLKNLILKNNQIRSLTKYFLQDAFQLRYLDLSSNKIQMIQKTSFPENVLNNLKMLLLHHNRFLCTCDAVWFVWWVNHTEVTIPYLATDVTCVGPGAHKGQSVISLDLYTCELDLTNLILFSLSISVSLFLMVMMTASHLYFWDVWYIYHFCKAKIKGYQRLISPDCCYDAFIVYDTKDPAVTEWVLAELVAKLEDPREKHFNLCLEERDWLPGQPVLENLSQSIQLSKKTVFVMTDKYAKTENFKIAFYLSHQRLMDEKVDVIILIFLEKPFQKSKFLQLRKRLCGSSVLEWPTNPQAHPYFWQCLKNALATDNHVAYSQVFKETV
How it was run: as §1

SMILES | IC50 (human TLR8) | IC50 (human TLR9) | IC50 (human TLR7)
Cc1nc2c(-c3[nH]c4ccc(C5CCN(CC(=O)N(C)C)CC5)cc4c3C(C)C)ccc(C)n2n1 [Example 384, 2-(4-(2-(2,5-dimethyl-[1,2,4]triazolo[1,5-a]pyridin-8-yl)-3-isopropyl-1H-indol-5-yl)piperidin-1-yl)-N,N-dimethylacetamide] | 100 to 1000 nM | 1000 to 50000 nM | 1000 to 50000 nM
Cc1cc(-c2[nH]c3ccc(C4CCN(C5CCS(=O)(=O)CC5)CC4)cc3c2C(C)C)cn2ccnc12 [Example 799, 4-(4-(3-isopropyl-2-(8-methylimidazo[1,2-a]pyridin-6-yl)-1H-indol-5-yl)piperidin-1-yl)tetrahydro-2H-thiopyran 1,1-dioxide] | < 100 nM | 100 to 1000 nM | < 100 nM
Cc1cc(-c2[nH]c3ccc(C4CCNCC4)cc3c2C(C)C)c(C)n2nnnc12 [Example 74, 6-(3-isopropyl-5-(piperidin-4-yl)-1H-indol-2-yl)-5,8-dimethyltetrazolo[1,5-a]pyridine] | < 100 nM | 1000 to 50000 nM | < 100 nM
CCc1c(-c2ccn3ncnc3c2)[nH]c2ccc(C3CCNCC3)cc12 [Example 198, 7-(3-ethyl-5-(piperidin-4-yl)-1H-indol-2-yl)-[1,2,4]triazolo[1,5-a]pyridine] | 100 to 1000 nM | 1000 to 50000 nM | < 100 nM
Cc1cn2cc(-c3[nH]c4ccc(C5CCN(C(=O)C[C@H](C)O)CC5)cc4c3CC(F)F)ccc2n1 [Example 608, (S)-1-(4-(3-(2,2-difluoroethyl)-2-(2-methylimidazo[1,2-a]pyridin-6-yl)-1H-indol-5-yl)piperidin-1-yl)-3-hydroxybutan-1-one] | > 3130 nM | 1000 to 50000 nM | 100 to 1000 nM
Cc1cc(-c2[nH]c3ccc(C4CCNCC4)cc3c2C(C)C)nc2scnc12 [Example 101, 5-(3-isopropyl-5-(piperidin-4-yl)-1H-indol-2-yl)-7-methylthiazolo[5,4-b]pyridine] | < 100 nM | 1000 to 50000 nM | < 100 nM
CNCC(=O)N1CCC(c2ccc3[nH]c(-c4cc(OC)c5nccn5c4)c(C(C)C)c3c2)CC1 [Example 559, 1-(4-(3-isopropyl-2-(8-methoxyimidazo[1,2-a]pyridin-6-yl)-1H-indol-5-yl)piperidin-1-yl)-2-(methylamino)ethan-1-one] | < 100 nM | 100 to 1000 nM | < 100 nM
CCc1c(-c2ccnc3[nH]ncc23)[nH]c2ccc(C3CCN(Cc4nccs4)CC3)cc12 [Example 929, 2-((4-(3-ethyl-2-(1H-pyrazolo[3,4-b]pyridin-4-yl)-1H-indol-5-yl)piperidin-1-yl)methyl)thiazole] | < 100 nM | 1000 to 50000 nM | 100 to 1000 nM
CC(C)c1c(-c2ccc3nccn3c2)[nH]c2ccc(C3CCN(Cc4c[nH]cn4)CC3)cc12 [Example 940, 6-(5-(1-((1H-imidazol-4-yl)methyl)piperidin-4-yl)-3-isopropyl-1H-indol-2-yl)imidazo[1,2-a]pyridine] | < 100 nM | < 100 nM | < 100 nM
CCc1c(-c2ccnc3[nH]ncc23)[nH]c2ccc(C3CCNCC3F)cc12 (stereo not drawn) [Example 177, 4-(3-ethyl-5-(3-fluoropiperidin-4-yl)-1H-indol-2-yl)-1H-pyrazolo[3,4-b]pyridine] | < 100 nM | 1000 to 50000 nM | < 100 nM
CNC(=O)CN1CCC(c2ccc3[nH]c(-c4cnc5nn(C)cc5c4)c(C(C)C)c3c2)CC1 [Example 368, 2-(4-(3-isopropyl-2-(2-methyl-2H-pyrazolo[3,4-b]pyridin-5-yl)-1H-indol-5-yl)piperidin-1-yl)-N-methylacetamide] | > 3130 nM | 1000 to 50000 nM | 1000 to 50000 nM
CC(C)c1c(-c2ccnc3cn[nH]c23)[nH]c2ccc(C3CCNCC3)cc12 [Example 54, 7-(3-isopropyl-5-(piperidin-4-yl)-1H-indol-2-yl)-1H-pyrazolo[4,3-b]pyridine] | < 100 nM | 100 to 1000 nM | < 100 nM
